In patent US8338426B2, “Piperazinyl derivatives useful as modulators of the neuropeptide Y2 receptor” (Janssen Pharmaceutica NV, priority 2007, dated 2012):

Target: T1, NPY Y2 receptor (Homo sapiens, UniProt P49146)
T1 sequence (P49146 1-381): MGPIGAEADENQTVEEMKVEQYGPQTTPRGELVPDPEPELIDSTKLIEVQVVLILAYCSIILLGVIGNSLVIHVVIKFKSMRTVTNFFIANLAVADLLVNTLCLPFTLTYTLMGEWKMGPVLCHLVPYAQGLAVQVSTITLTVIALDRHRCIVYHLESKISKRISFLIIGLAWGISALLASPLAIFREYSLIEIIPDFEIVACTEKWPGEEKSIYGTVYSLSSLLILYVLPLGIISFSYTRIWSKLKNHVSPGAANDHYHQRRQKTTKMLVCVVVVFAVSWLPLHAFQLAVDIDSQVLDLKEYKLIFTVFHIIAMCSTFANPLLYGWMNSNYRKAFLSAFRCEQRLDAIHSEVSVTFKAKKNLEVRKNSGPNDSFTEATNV
Experiment: CEREP binding panel, NPY Y2
Experimental: The selectivity of the compound of formula (A) was further evaluated in a large variety of ion-channels, transporters and receptor-binding assays including the Y1 receptor subtype. These assays were performed by CEREP (Celles L'Evescault, France; www.cere.com<http//www.cerea.com>). Selectivity vs the Y5 receptor subtype was evaluated as described in Bonaventure, P., D. Nepomuceno, C. Mazur, B. Lord, D. A. Rudolph, J. A. Jablonowski, N. I. Carruthers and T. W. Lovenberg, J Pharmacol Exp Ther. 2004, 308, 1130.
The compound of formula (A) was assayed by binding in a panel of 50 receptors, ion channels and transporters assays (CEREP) including adenosine (A1,A2A,A3), adrenergic (α1, α2, β1), angiotensin (AT1), dopamine (D1, D2), bradykinin (B2), cholecystokinin (CCKA), galanin (GAL2), melatonin ML1), muscarinic (M1, M2, M3), neurotensin (NTS), neurokinin (NK2, NK3), NPY (Y1, Y2) opiate (m, k, d), serotonin (5-HT1A, 5-HT1B, 5-HT2A, 5-HT3, 5-HT5A, 5-HT6, 5-HT7), somatostatin, vasopressin (V1a), norepinephrine transporter, dopamine transporter and ion channels (sodium, calcium, potassium and chloride).

inhibition at 1 µM: 100%
Structure (SMILES): CCN(CC)C(=O)C(c1ccccc1)N1CCN(c2ccc(NC(=O)c3ccccc3-c3cccnc3)cc2F)CC1 (racemic) [Cmpd (A), N-{4-[4-(Diethylcarbamoyl-phenyl-methyl)-piperazin-1-yl]-3-fluoro-phenyl}-2-pyridin-3-yl-benzamide]
